Results on 20 molecules are retold here after BindingDB's records for doi:10.7270/Q2G73C2Z (University of Pittsburgh, 2007).

This assay deals with T1, Dual specificity protein phosphatase 6 (Rattus norvegicus, UniProt Q64346).
T1 sequence (Q64346 whole entry): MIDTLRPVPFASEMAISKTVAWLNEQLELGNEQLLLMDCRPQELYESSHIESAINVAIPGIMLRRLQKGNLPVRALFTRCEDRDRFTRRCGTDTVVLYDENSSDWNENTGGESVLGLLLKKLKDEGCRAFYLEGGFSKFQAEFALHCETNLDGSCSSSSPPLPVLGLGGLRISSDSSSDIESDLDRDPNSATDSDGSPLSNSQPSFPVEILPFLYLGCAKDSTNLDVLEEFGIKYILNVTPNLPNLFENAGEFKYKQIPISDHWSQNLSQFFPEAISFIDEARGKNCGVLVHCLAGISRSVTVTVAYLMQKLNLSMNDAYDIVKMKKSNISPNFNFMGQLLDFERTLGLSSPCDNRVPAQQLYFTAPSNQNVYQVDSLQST
Kind of assay: reproducibility of MKP-3 inhibition curves – biochemical, rat DUSP6, reproducibility testing, probe assessment, dose response (AID 566).
`O=C(OC1CCCCC1)c1ccc2c(c1)C1C=CCC1C(C(=O)O)N2` (stereo not given) [SMR000019385] had a half-inhibitory concentration (IC50) above 50 µM.
With `CC(C)(C)N1C(=O)Cc2c1nc(N)c1c(N)nc(N3CCCCC3CO)c(C#N)c21` (stereo not given) [5,6-bis(azanyl)-3-tert-butyl-8-[2-(hydroxymethyl)piperidin-1-yl]-2-oxidanylidene-1H-pyrrolo[2,3-c][2,7]naphthyridine-9-carbonitrile], the IC50 is above 50 µM.
As for `O=C1c2ccccc2-c2onc3ccc(NCCCn4ccnc4)c1c23` [SMR000044769], the figure is above 50 µM.
`CC1=C(/C=C/C(C)=C/C=C/C(C)=C/C(=O)O)C(C)(C)CCC1` [ALL-TRANS-RETINOIC ACID] had an IC50 above 50 µM.
For the molecule `CCOc1cc(/C=C(/C#N)c2ccc(F)cc2)ccc1OCc1ccc(C(=O)O)o1` [5-[[4-[(E)-2-cyano-2-(4-fluorophenyl)ethenyl]-2-ethoxyphenoxy]methyl]furan-2-carboxylic acid], the IC50 is above 50 µM.
As for `O=C1C(=C2C(=O)c3ccccc3C2=O)Nc2ccccc21` [MLS000071738], the figure is above 50 µM; as for `COc1ccc(Br)cc1C=c1sc2nc(-c3ccco3)nn2c1=O` [5-[(5-bromanyl-2-methoxy-phenyl)methylidene]-2-(furan-2-yl)-[1,3]thiazolo[3,2-b][1,2,4]triazol-6-one], above 50 µM.
The molecule `FC(F)(F)c1ccc(N2CCOCC2)c(Nc2nc3ccccc3n3cnnc23)c1` [MLS000093276] displayed an IC50 above 50 µM.
As for `CCCCn1c(SCC(=O)c2ccc(OC)cc2OC)nc2cc(S(N)(=O)=O)ccc21` [1-butyl-2-[2-(2,4-dimethoxyphenyl)-2-oxidanylidene-ethyl]sulfanyl-benzimidazole-5-sulfonamide], the IC50 was above 50 µM.
`Cc1cc(C)n2c(SCC(=O)N3CCN(S(=O)(=O)c4ccc(Cl)cc4)CC3)nnc2n1` [1-[4-(4-chlorophenyl)sulfonyl-1-piperazinyl]-2-[(5,7-dimethyl-[1,2,4]triazolo[4,3-a]pyrimidin-3-yl)thio]ethanone] displayed an IC50 above 50 µM.
Turning to `Cc1ccc(/C=C/C2=Cc3c(sc(NC(=O)CSc4nnc(N)[nH]4)c3C#N)C(C)(C)C2)o1` [2-[(5-azanyl-1H-1,2,4-triazol-3-yl)sulfanyl]-N-[3-cyano-7,7-dimethyl-5-[(E)-2-(5-methylfuran-2-yl)ethenyl]-6H-1-benzothiophen-2-yl]ethanamide], the IC50 was above 50 µM.
As for `Cc1nc2cc(-c3cccc(F)c3)nn2c(C)c1CCC(=O)N1CCC2(CC1)OCCO2` [1-(1,4-dioxa-8-azaspiro[4.5]decan-8-yl)-3-[2-(3-fluorophenyl)-5,7-dimethyl-6-pyrazolo[1,5-a]pyrimidinyl]-1-propanone], the figure is above 50 µM; as for `CCCCNC(=O)c1c(N)n(CCCOC)c2nc3ccccc3nc12` [2-amino-N-butyl-1-(3-methoxypropyl)-3-pyrrolo[3,2-b]quinoxalinecarboxamide], above 50 µM.
In the case of `COCCCn1c(N)c(C(=O)NCCC(C)C)c2nc3ccccc3nc21` [MLS000041744], the IC50 is above 50 µM.
In turn, `O=C(c1cccs1)c1no[n+]([O-])c1C(=O)c1cccs1` [(5-oxidanidyl-4-thiophen-2-ylcarbonyl-1,2,5-oxadiazol-5-ium-3-yl)-thiophen-2-yl-methanone] registered an IC50 above 50 µM.
With `Nc1c(N2CCCC2)cc(Cl)c2nonc12` [(7-chloro-5-pyrrolidino-benzofurazan-4-yl)amine], the IC50 is above 50 µM.
Molecule `[O-]/[N+](=C\c1ccncc1)c1ccccc1` had an IC50 above 50 µM.
In the case of `Cc1c(N=c2c(=O)c3ccccc3c2=O)c(=O)n(-c2ccccc2)n1C` [MLS000105950] it was 8.19 µM; in that of `O=C(NC1(O)C(=O)c2ccccc2C1=O)c1ccccc1` [N-(2-hydroxy-1,3-dioxo-2-indenyl)benzamide], 19.9 µM.
In the case of `CCCCCNC(=O)c1ccc2c(=O)[nH]c3c(C(=O)NCC4CCCO4)sc(=S)n3c2c1` (stereo not given) [5-oxo-N3-(2-oxolanylmethyl)-N8-pentyl-1-sulfanylidene-4H-thiazolo[3,4-a]quinazoline-3,8-dicarboxamide], the IC50 was above 50 µM.
